The source of these data is patent US20200339625A1, “NOVEL RADIOMETAL-BINDING COMPOUNDS FOR DIAGNOSIS OR TREATMENT OF PROSTATE SPECIFIC MEMBRANE ANTIGEN-EXPRESSING CANCER” (PROVINCIAL HEALTH SERVICES AUTHORITY, priority 2017, published 2020).

For data set [1], the system named is mice bearing LNCaP tumor xenografts. Description: SPECT/CT imaging of 177Lu-labeled compounds. The class given is in vivo. Particulars: for size of LNCaP tumor xenografts over time: injection of about 37 MBq, SPECT/CT. As for the experimental part: SPECT/CT imaging and biodistribution were performed using NOD-scid IL2Rgammanu^null (NSG) male mice, and the endoradiotherapy study was conducted using NOD.Cg-Rag1^tm1MomII2rg^tm1WjI/SzJ (NRG) male mice. The mice were maintained and the experiments were conducted in according to the guidelines established by the Canadian Council on Animal Care and approved by Animal Ethics Committee of the University of British Columbia. Mice were anesthetized by inhalation with 2% isoflurane in oxygen, and implanted subcutaneously with 1×10^7 LNCaP cells posterior to the left shoulder. Mice were used for studies when the tumor reached 5-8 mm in diameter 5-6 weeks after inoculation.
SPECT/CT imaging experiments were conducted using the MILabs (Utrecht, the Netherlands) U-SPECT-II/CT scanner. Each tumor-bearing mouse was injected with ≠37 MBq of ^177Lu-labeled PSMA-617 or HTK01169 through the tail vein under anesthesia (2% isoflurane in oxygen). The mice were allowed to recover and roam freely in their cage and imaged at 4, 24, 72 and 120 hours after injection. At each time point, the mice were sedated again and positioned in the scanner. A 5-min CT scan was conducted first for anatomical reference with a voltage setting at 60 kV and current at 615 μA followed by a 60-min static emission scan acquired in list mode using an ultra-high resolution multi-pinhole rat-mouse (1 mm pinhole size) collimator. Data were reconstructed using the U-SPECT II software with a 20% window width on three energy windows. The photopeak window was centered at 208 keV, with lower scatter and upper scatter windows centered at 170 and 255 keV, respectively. The images were reconstructed using the ordered subset expectation maximization algorithm (3 iterations, 16 subsets), and a 0.5 mm post-processing Gaussian filter. Images were decay corrected to injection time in PMOD (PMOD Technologies, Switzerland) then converted to DICOM for qualitative visualization in the Inveon Research Workplace software (Siemens Medical Solutions USA, Inc.).

Another data set concerns LNCaP tumors. Description: Radiation dosimetry calculation, unit density sphere model. Details: species or system mice. As for the experimental part: (§1) Internal dosimetry estimates were calculated using the organ level internal dose assessment (OLINDA) software v.2.0.^37 These estimates were performed for the mouse using the 25 g MOBY phantom,^38 for humans using the NURBS model for the adult male,^39 and for the tumors using the previously reported unit density sphere model.^40 All the phantoms and the sphere model are available in OLINDA and require the input of the total number of decays normalized by injected activity in units of MBq×h/MBq for each of the source organ/tumor.
Lastly, the numbers of decays in the tumors were also calculated based on the biodistribution data of the mice and the values were inputted into the sphere model available in OLINDA.

Data set [2] in a line: Radiation dosimetry calculation (OLINDA), 25-g mouse. As for the experimental part: 1.18 Radiation Dosimetry Calculation
as §1
The biodistribution data (available in the Tables 1 and 2, below) was used to determine the kinetics input values required by OLINDA. First, each of the values was decayed to its corresponding time point (the values on the table are shown at injection time). Then the different time-points of the uptake data (% ID/g) for each organ were fitted to both mono-exponential
functions using in-house software developed in Python. The best fit was selected based on maximizing the coefficient of determination (R2) of the fit and minimizing the residuals. The areas under the curves were analytically calculated based on the parameters obtained from the best fit of each organ and this provided the kinetic input values required by OLINDA.
In the mouse case, the adrenals, blood, fat, muscle, and seminal vesicles are not modeled in the phantom. These organs were grouped together and included in what OLINDA calls the remainder of the body.

For the next data set, the system named is human serum. Description: Plasma protein binding assay. In kind it is in vitro ADME. Particulars: for free radioligand: human serum; for filter-bound radioactivity: n=3. As for the experimental part: 1.16 Plasma Protein Binding Assay
Plasma protein binding assays were performed according to literature methods.^19 Briefly, 37 kBq of ^177Lu-PSMA-617 or ^177Lu-HTK01169 in 50 μL PBS was added into 200 μL human serum and the mixture was incubated at room temperature for […]. The mixture was then loaded onto a membrane filter (Nanosep®, 30 K, Pall Corporation, USA) and centrifuged for 45 min (30,130×g). Saline (50 μL) was added and centrifugation was continued for another 15 min. The top part with the membrane filter and the bottom part with the solution were counted on a gamma counter. For control, saline was used in place of human serum.

Data set [3] has as its system metastatic prostate cancer. Conditions: cited from earlier work.
Data set [4] relates to PSMA-expressing PC-3 PIP tumors. Conditions: 5 MBq; cited from earlier work.
[5] abbreviates: source organ Large intestine contents.
The mark [6] stands for this setting: source organ Remainder of the body.
Setting [7] is: source organ Urinary bladder contents.
Where [8] appears, read: incubated with saline (control).

As to `O=C([O-])CN1CCN(CC(=O)[O-])CCN(CC(=O)NCCCC[C@H](NC(=O)[C@H](CCC(=O)O)NC(=O)CCCc2ccc(I)cc2)C(=O)NC[C@H]2CC[C@H](C(=O)N[C@@H](Cc3ccc4ccccc4c3)C(=O)NCCCC[C@H](NC(=O)N[C@@H](CCC(=O)O)C(=O)O)C(=O)O)CC2)CCN(CC(=O)[O-])CC1.[177Lu+3]` [^177Lu-HTK01169], the excretion pathway entry in data set [1] (SPECT/CT images) was “excreted mainly via the renal pathway”. The “tumor uptake (qualitative)” value in data set [1] (SPECT/CT images, compared with 177Lu-PSMA-617) was “Higher and sustained tumor uptake”. For the same compound, in data set [1] (SPECT/CT images, early time points (4 and 24 h), compared with 177Lu-PSMA-617), the “renal retention (qualitative)” value is on record as “higher renal retention”. The “size of LNCaP tumor xenografts over time” value in data set [1] is given as “quick reduction in size”. For the same compound, the “kinetic uptake value used as input in OLINDA” value with LNCaP tumors is reported as 31.72 MBq-h/MBq. Moreover, the Kinetics value in data set [2] (source organ Brain) was 3.21E−02 MBq-h/MBq; in data set [2] (source organ Cortical bone), 5.48E−01 MBq-h/MBq; in data set [2] (source organ Heart contents), 1.66E−01 MBq-h/MBq; in data set [2] (source organ Kidneys), 1.94E+01 MBq-h/MBq; in data set [2] (setting [5]), 2.25E−01 MBq-h/MBq; in data set [2] (source organ Liver), 1.41E+00 MBq-h/MBq. Further, the Kinetics value was 1.28E−01 MBq-h/MBq in data set [2] (source organ Lungs); 1.30E−01 MBq-h/MBq in data set [2] (source organ Pancreas); 1.73E+01 MBq-h/MBq in data set [2] (setting [6]); 6.73E−01 MBq-h/MBq in data set [2] (source organ Small intestine); 4.38E−01 MBq-h/MBq in data set [2] (source organ Spleen); 1.54E−02 MBq-h/MBq in data set [2] (source organ Stomach contents). The Kinetics value in data set [2] (source organ Testes) was 1.66E−01 MBq-h/MBq; in data set [2] (setting [7]), 6.02E−01 MBq-h/MBq. The same compound yielded a free radioligand with human serum below 1%. The filter-bound radioactivity with human serum (incubated with human serum) was 99.2±0.02%; with human serum (setting [8]) it was 25.8±3.42%.

For the compound `O=C([O-])CN1CCN(CC(=O)[O-])CCN(CC(=O)NCC2CCC(C(=O)N[C@@H](Cc3ccc4ccccc4c3)C(=O)NCCCC[C@H](NC(=O)N[C@@H](CCC(=O)O)C(=O)O)C(=O)O)CC2)CCN(CC(=O)[O-])CC1.[177Lu+3]` (stereo partly drawn) [^177Lu-PSMA-617, reference compound], in data set [1] (SPECT/CT images), the excretion pathway entry is given as “excreted mainly via the renal pathway”. Moreover, in data set [1], the “size of LNCaP tumor xenografts over time” value was “quick reduction in size”. In addition, the “kinetic uptake value used as input in OLINDA” value with LNCaP tumors is recorded as 3.80 MBq-h/MBq. For the same compound, the Kinetics value was 6.96E−03 MBq-h/MBq in data set [2] (source organ Brain); 9.96E−02 MBq-h/MBq in data set [2] (source organ Cortical bone); 4.21E−03 MBq-h/MBq in data set [2] (source organ Heart contents); 1.13E+00 MBq-h/MBq in data set [2] (source organ Kidneys); 1.74E−02 MBq-h/MBq in data set [2] (setting [5]); 6.54E−02 MBq-h/MBq in data set [2] (source organ Liver). The Kinetics value in data set [2] (source organ Lungs) is 5.10E−03 MBq-h/MBq; in data set [2] (source organ Pancreas) it was 5.44E−03 MBq-h/MBq; in data set [2] (setting [6]), 6.82E−01 MBq-h/MBq; in data set [2] (source organ Small intestine) it was 5.20E−02 MBq-h/MBq; in data set [2] (source organ Spleen), 1.50E−02 MBq-h/MBq; in data set [2] (source organ Stomach contents), 5.42E−03 MBq-h/MBq. The results for the Kinetics value in data set [2] (source organ Testes) and in data set [2] (setting [7]) were 4.96E−03 MBq-h/MBq and 1.10E+00 MBq-h/MBq, respectively. In addition, the free radioligand with human serum is reported as around 17%. The filter-bound radioactivity in the data set on human serum (incubated with human serum) stood at 82.7±0.32%; in the data set on human serum (setting [8]), 5.21±1.42%. In addition, in data set [3] (human, in vivo), the complete response rate is reported as below 7%. Further, the “patients with progressive disease after treatment” value in data set [3] (human, in vivo) was “up to 33%”. The side effects result in data set [3] (human, in vivo) is given as “without severe side effects”. Moreover, the “patients having >50% reduction in PSA levels” value in data set [3] (metastatic prostate cancer) was 32-60%. Besides, the objective response in data set [3] (phase 2 Australian study, patients with measurable nodal or visceral disease) is 82%. In addition, the Median survival in data set [4] is reported as 32 days.
